Measured values reported in patent US6855505B2, “Method for quantifying TGF-β” (Renovo Limited, priority 1998, dated 2005).

Tests used:
active TGF-β = experiment: Active TGF-β in wound cryosections, modified PAI/L assay; format: in vivo, rat; details: for level of active TGF-β in treated wounds compared with PBS controls: M6P 100 mM, 100 μl/wound/day; for level of active TGF-β in treated wounds compared to controls: 100 μM kistrin
Source text: (§1) Adult male Sprague-Dawley rats (Charles River UK Ltd, Kent, UK) weighing 225-250 g were anaesthetised by inhalation of halothane, nitrous oxide, and oxygen. The back of the rats was shaved, and four full-thickness linear incisions of 1 cm length, including the panniculus carnosus, were made on the back of the animals using a scalpel as described in Shah et al., “Control of scarring in adult wounds by neutralising antibody to transforming growth factor β, Lancet. 339: 213-214, 1992. The wounds were left unsutured to heal by secondary intention. The animals were allowed to recover, housed separately, and fed ad libitum until the wounds were harvested. The animals were killed by chloroform overdose at 1 hour, 6 hour, or 1, 2, 3, 4, 5, 7, 10 and 14 days post-wounding. The wounds were harvested and processed as described below. All animal experiments were carried out under appropriate licences according to UK Home Office regulations.
(§2) The wound area was swabbed with 70% ethanol. The wounds were carefully dissected from surrounding tissue and subsequently embedded in 8% sterile methyl cellulose (Sigma, Dorset, UK) and snap frozen in liquid nitrogen. Four wounds from each animal were embedded in one block of methyl cellulose. Four tissue samples of equivalent size representing surrounding tissue adjacent to the wound were also excised and processed as described above. Normal skin from the back of non-wounded rats was used as a control. The embedded tissue samples were stored at −80° C. for a maximum of 3 months. Thick cryosections (20 μm) were cut and placed on sterilised 13-mm round coverslips and analysed in duplicate. The coverslips, each carrying 4 cryosections of the wound, were placed into a 24-well cell culture plate and temporarily stored at −20° C. until transferred onto mink lung epithelial cells (MLECs).
Referring to FIG. 1, the original PAI/L assay for the quantification of TGF-β in liquid samples was modified in order to measure active/latent TGF-β levels in a tissue section of a wound site to provide an indication of the levels at the wound site in vivo. As shown in FIG. 1A MLECs (10) were plated for 4 h into 24-well plates. one well (12) being represented in FIG. 1A (3×10^5/ml, 500 μl/well) in complete DMEM and incubated for 4 hours at 37° C. Then, serum-containing medium was replaced with 500 μl of DMEM containing 0.1% pyrogen-poor BSA (from Pierce, Rockford, Ill., USA), aprotinin (1 μg/ml) (from Sigma, Dorset, UK) penicillin (100 U/ml) and streptomyciln (100 μg/ml), designated DMEM-BSA medium (14). The coverslips (16) carrying cryosections (18) were placed upside down onto the MLECs (10) in the 24-well plates.
These serial dilutions were added to the MLECs (10) together with methyl-cellulose coated coverslips (16).
Both samples and TGF-β standards were incubated with the MLECs (10) overnight at 37° C. MLECs (10) were then washed with phosphate buffered saline (PBS) and lysed with 200 μl of luciferase cell lysis buffer (from Analytical Luminescence Laboratory, Ann Arbor, USA) for 20 minutes at room temperature. Forty-five microliters of the lysates was transferred in triplicate to a Microlite 96-well plate (Dynatech Laboratories Inc. Chantilly, Va., USA). Luciferase activity in the lysates was determined using an MLX Microtiter Plate Luminometer (Dynex Technologies, Chantilly, Va., USA).
(§3) 20 animals each received 4 wounds which were subsequently treated with M6P (100 mM, 100 μl/wound/day). Animals were killed at 1 and 6 hours and 1, 3, 5, 7, 10 and 14 days post wounding. The wounds were dissected and embedded in methyl cellulose, then snap frozen. The tissue samples were subsequently prepared for use in the modified PAI-1/L assay.
Briefly, rat incisional wounds were treated with 1 mM monodansylcadaverine (MDC), a potent inhibitor of Transglutaminase activity. The wounds were prepared and assayed as described previously. […]

total TGF-β = experiment: Total TGF-β (active plus latent) in heat-activated wound cryosections, PAI/L assay; format: in vivo, rat; details: for level of total TGF-β in treated wounds compared with control wounds: M6P 100 mM, 100 μl/wound/day; for level of total TGF-β in treated wounds compared to controls: 100 μM kistrin
Source text: as §1, §2
In order to measure total TGF-β (active plus latent) in the wound tissue samples, the coverslips carrying the cryosections were submerged in 500 μl of DMEM-BSA medium in a sterile glass embryo dish (BDH, Merck, Leics., UK) and incubated for 20 minutes at 80° C. in order to heat activate latent TGF-β. Following heat activation, the coverslips were transferred, together with the medium, onto MLECs for TGF-β quantification in the PAI/L assay according to Example 1. Similar results were obtained in three separate experiments.
as §3
(§4) Briefly, rat incisional wounds were treated with 100 μM kistrin, then prepared and assayed as described previously.

rat incisional wounds [1] = experiment: Scarring in rat incisional wound model; format: in vivo
Source text: as §1
Briefly, rat incisional wounds were treated with 1 mM monodansylcadaverine (MDC), a potent inhibitor of Transglutaminase activity. The wounds were prepared and assayed as described previously.
as §4

rat incisional wounds [2] = details: application into rat dermal wounds; earlier studies; cited from earlier work
latent TGF-β = experiment: Latent TGF-β in wound sections; format: in vivo, rat; details: 100 μM kistrin; 1 hour post wounding
Experimental: as §4

[3] = rat incisional wounds treated with 1 mM MDC

O=C[C@@H](O)[C@@H](O)[C@H](O)[C@H](O)COP(=O)(O)O [M6P, mannose-6-phosphate]
level of active TGF-β in treated wounds compared with PBS controls (active TGF-β; 1 hour post wounding): less | level of active TGF-β in treated wounds compared with PBS controls (active TGF-β; 6 hours post wounding): less | level of active TGF-β in treated wounds compared with PBS controls (active TGF-β; 10 days post wounding): more active TGF-β than controls | level of active TGF-β in treated wounds compared with PBS controls (active TGF-β; after 6 hours until 10 days post wounding): comparable | reduction of levels of active TGF-β in vivo (overall conclusion) (active TGF-β; M6P treated rat wounds, early stages of wound repair): effective in reducing the levels of active TGF-β in vivo | level of total TGF-β in treated wounds compared with control wounds (total TGF-β; 6 hours post wounding): higher than controls | level of total TGF-β in treated wounds compared with control wounds (total TGF-β; 5 days post wounding): higher than controls | level of total TGF-β in treated wounds compared with control wounds (total TGF-β; 7 days post wounding): less than controls | level of total TGF-β in treated wounds compared with control wounds (total TGF-β; 10 days post wounding): higher than controls | scarring (rat incisional wounds [1]; local administration of M6P, rat incisional wound model, previously demonstrated by the applicant): significantly reduces scarring | quality of scarring (rat incisional wounds [2]): improve the quality of scarring

CN(C)c1cccc2c(S(=O)(=O)NCCCCCN)cccc12 [MDC, monodansylcadaverine]
early TGF-β levels (active TGF-β; [3]): reduces early TGF-β levels | TGF-β activation in vivo (active TGF-β; rat incisional wounds treated with 1 mM MDC, FIG. 8): inhibits TGF-β activation in vivo | scarring (rat incisional wounds [1]; [3]): improves scarring

kistrin
level of active TGF-β in treated wounds compared to controls (active TGF-β; 1 hour post wounding): increased | level of active TGF-β in treated wounds compared to controls (active TGF-β; 5 days post wounding): no differences | level of total TGF-β in treated wounds compared to controls (total TGF-β; 1 hour post wounding): increased | level of total TGF-β in treated wounds compared to controls (total TGF-β; 5 days post wounding): no differences | amount of latent TGF-β compared to controls (latent TGF-β): no difference | antiscarring effect (rat incisional wounds [1]; kistrin treated rat incisional wounds): no antiscarring effect
